The target of the assay is Substance-P receptor (Homo sapiens, UniProt P25103). As to the kind of experiment: Antagonistic activity against Tachykinin receptor 1. It is filed as functional.
Sequence of Substance-P receptor (P25103 whole entry): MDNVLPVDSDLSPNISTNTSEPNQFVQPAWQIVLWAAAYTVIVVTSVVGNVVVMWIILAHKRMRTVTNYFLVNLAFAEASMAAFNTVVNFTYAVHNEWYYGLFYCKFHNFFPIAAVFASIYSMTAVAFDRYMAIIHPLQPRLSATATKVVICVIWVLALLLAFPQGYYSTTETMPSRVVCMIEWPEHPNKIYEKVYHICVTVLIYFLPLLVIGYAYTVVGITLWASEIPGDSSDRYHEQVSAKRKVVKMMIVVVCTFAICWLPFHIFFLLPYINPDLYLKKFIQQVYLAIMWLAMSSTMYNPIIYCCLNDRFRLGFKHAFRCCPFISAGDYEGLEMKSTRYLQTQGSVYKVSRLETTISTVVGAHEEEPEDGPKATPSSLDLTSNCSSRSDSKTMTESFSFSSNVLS

For orientation: IC50 means the point on the concentration scale where inhibition reaches its midpoint. As to `COc1ccc([N+](=O)[O-])cc1C[C@@]12C[C@H]3C(=O)N[C@@H](Cc4ccccc4)C(=O)N3[C@@H]1Nc1ccccc12`, the IC50 was found to be 88 µM.

`COc1ccc(N)cc1C[C@@]12C[C@H]3C(=O)N[C@@H](Cc4ccccc4)C(=O)N3[C@@H]1Nc1ccccc12` returned an IC50 of 38 µM.

For `O=C1[C@@H]2C[C@]3(Cc4cc([N+](=O)[O-])ccc4O)c4ccccc4N[C@@H]3N2C(=O)[C@H](Cc2ccccc2)N1Cc1cc([N+](=O)[O-])ccc1O`, the half-maximal inhibitory concentration (IC50) was over 100 µM.

In the case of `Cc1cccc2c1C1(C34C[C@H]5C(=O)N[C@@H](Cc6ccccc6)C(=O)N5[C@H]3Nc3cccc(C)c34)C[C@H]3C(=O)N[C@@H](Cc4ccccc4)C(=O)N3[C@H]1N2` (stereo partly drawn), inhibition was half-maximal at 5.7 µM (IC50).

The compound `COc1ccc([N+](=O)[O-])cc1C[C@]12C[C@H]3C(=O)N[C@@H](Cc4ccccc4)C(=O)N3[C@H]1Nc1ccccc12` showed an IC50 of 54 µM.

As for `COc1ccc(N)cc1C[C@]12C[C@H]3C(=O)N[C@@H](Cc4ccccc4)C(=O)N3[C@H]1Nc1ccccc12`, the IC50 turned out to be 26 µM.

In turn, `O=C1N[C@@H](Cc2ccccc2)C(=O)N2[C@H]3Nc4ccccc4C3(C34C[C@H]5C(=O)N[C@@H](Cc6ccccc6)C(=O)N5[C@H]3Nc3ccccc34)C[C@@H]12` (stereo partly drawn) returned an IC50 of 0.24 µM.

For `O=C1N[C@@H](Cc2ccccc2)C(=O)N2[C@H]3Nc4ccccc4[C@@]3(O)C[C@@H]12`, the IC50 is over 100 µM.

For `O=C1N[C@@H](Cc2ccccc2)C(=O)N2[C@H]3Nc4ccccc4[C@@]3(Cc3cc([N+](=O)[O-])ccc3O)C[C@@H]12`, the IC50 came to 48 µM.

Regarding `Cc1cccc2c1C1(C34C[C@H]5C(=O)N[C@@H](Cc6ccccc6)C(=O)N5[C@H]3Nc3ccccc34)C[C@H]3C(=O)N[C@@H](Cc4ccccc4)C(=O)N3[C@H]1N2` (stereo partly drawn), the IC50 was 0.44 µM.

Take `O=C1N[C@@H](Cc2ccccc2)C(=O)N2[C@H]1C[C@@]1(Cc3cc([N+](=O)[O-])ccc3O)c3ccccc3N[C@@H]21`: the IC50 amounted to 98 µM.

Consider `O=C1[C@@H]2C[C@@]3(Cc4cc([N+](=O)[O-])ccc4O)c4ccccc4N[C@H]3N2C(=O)[C@H](Cc2ccccc2)N1Cc1cc([N+](=O)[O-])ccc1O`, for which the IC50 is over 100 µM.

`O=C1N[C@@H](Cc2ccccc2)C(=O)N2[C@H]1C[C@@]1(O)c3ccccc3N[C@@H]21` came in with an IC50 of over 100 µM.
